Assay results published in BigSolDB 2.1.

O=C(O)CCCCCCC(=O)O
Settings	solubility (mole fraction)
in THF, 283.15 K	0.0356
in THF, 289.75 K	0.0437
in THF, 296.85 K	0.0546
in THF, 303.75 K	0.0665
in THF, 310.75 K	0.0806
in THF, 317.95 K	0.0982
in THF, 324.95 K	0.117
in THF, 331.95 K	0.141
in acetone, 283.15 K	0.006
in acetone, 289.95 K	0.00833
in acetone, 296.85 K	0.0115
in acetone, 303.75 K	0.0154
in acetone, 310.75 K	0.0208
in acetone, 317.55 K	0.0292
in acetone, 322.75 K	0.035
in ethanol, 283.25 K	0.0158
in ethanol, 290.35 K	0.021
in ethanol, 297.05 K	0.0281
in ethanol, 303.85 K	0.0374
in ethanol, 310.95 K	0.0491
in ethanol, 317.85 K	0.0627
in ethanol, 324.85 K	0.0795
in ethyl acetate, 283.15 K	0.00167
in ethyl acetate, 289.95 K	0.00227
in ethyl acetate, 296.85 K	0.0031
in ethyl acetate, 303.95 K	0.00462
in ethyl acetate, 310.95 K	0.0065
in ethyl acetate, 317.75 K	0.00902
in ethyl acetate, 324.85 K	0.0125
in ethyl acetate, 331.75 K	0.0186
in isopropanol, 283.15 K	0.0145
in isopropanol, 289.95 K	0.0198
in isopropanol, 296.95 K	0.0271
in isopropanol, 303.55 K	0.0368
in isopropanol, 310.95 K	0.0486
in isopropanol, 317.95 K	0.0639
in isopropanol, 324.75 K	0.0816
in methanol, 283.25 K	0.0179
in methanol, 290.35 K	0.0242
in methanol, 297.05 K	0.0322
in methanol, 303.85 K	0.0443
in methanol, 310.95 K	0.0572
in methanol, 317.85 K	0.0748
in methanol, 324.85 K	0.0951
in n-propanol, 283.15 K	0.012
in n-propanol, 289.85 K	0.017
in n-propanol, 296.75 K	0.0233
in n-propanol, 303.85 K	0.0308
in n-propanol, 310.75 K	0.0422
in n-propanol, 317.75 K	0.0559
in n-propanol, 325.05 K	0.0718
in water, 283.25 K	9.14e-05
in water, 290.25 K	0.000131
in water, 297.15 K	0.0002
in water, 303.85 K	0.000291
in water, 310.85 K	0.000439
in water, 318.15 K	0.000662
in water, 325.15 K	0.00107
in water, 332.45 K	0.0017
in water, 339.15 K	0.00265
